Source: patent US20250195521A1 (Revolution Medicines, Inc., priority 2020, published 2025)
Like-named read-outs stand apart in the source and are kept apart here.

Legend:
[1] = system: NCI-H358 cells (K-Ras G12C); test: CellTiter-Glo cell viability, NCI-H358; type: cell-based, human; settings: Homo sapiens, NCI-H358, 120 h, read-out: H358 Cell Viability IC50
In short: (§1)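 Viability is read as luminescence after five days of compound exposure, with plates first equilibrated to room temperature for roughly 30 minutes. Each signal is expressed as a percentage of the mean DMSO control, and curves are fitted by four-parameter logistic regression.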

[2] = system: Capan-1 cells (K-Ras G12V); test: CellTiter-Glo cell viability, Capan-1; type: cell-based, human; settings: Homo sapiens, CAPAN-1, 120 h, read-out: Capan-1 Cell Viability IC50
In short: as §1

[3] = target: NRAS Q61R (Homo sapiens (Human), UniProt P01111+P62937, Q61R); test: Ras-Raf disruption/FRET/MOA assay (BRAF RBD, Cyclophilin A); type: biochemical
In short: (§2)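 TR-FRET read after 1.5 h with 10 nM anti-His Eu-W1024 and 50 nM anti-GST APC, following 3 h at 25 °C of GMPPNP-loaded His6-Ras (12.5 nM), GST-BRAF RBD (50 nM) and Cyclophilin A (25 μM) with compound from 30 μM final, 10 points, 3-fold. IC50 reported; pH 7.3 HEPES, 100 mM NaCl.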

[4] = target: KRAS G12D (Homo sapiens (Human), UniProt P01116+P62937, G12D); test: as above; type: biochemical; settings: read-out: KRAS G12D FRET IC50
In short: (§3)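 His6-K-Ras-GMPPNP (12.5 nM), GST-BRAF RBD (50 nM) and tagless Cyclophilin A (25 μM) were combined in 25 mM HEPES pH 7.3 with 100 mM NaCl, 5 mM MgCl2, 0.1% BSA and 0.002% Tween20, with compound as a 10-point 3-fold series from 30 μM final, then incubated 3 h at 25° C.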

[5] = target: NRAS WT (Homo sapiens (Human), UniProt P01111+P62937); test: as above; type: biochemical
In short: as §2

[6] = target: KRAS G12C (Homo sapiens (Human), UniProt P01116+P62937, G12C); test: as above; type: biochemical; settings: read-out: KRAS G12C FRET IC50
In short: as §3

[7] = target: NRAS G12C (Homo sapiens (Human), UniProt P01111+P62937, G12C); test: as above; type: biochemical; settings: read-out: NRAS G12C FRET data IC50
In short: as §2

[8] = target: KRAS G13C (Homo sapiens (Human), UniProt P01116+P62937, G13C); test: as above; type: biochemical; settings: read-out: KRAS G13C FRET IC50
In short: as §3

[9] = target: KRAS WT (Homo sapiens (Human), UniProt P01116+P62937); test: as above; type: biochemical; settings: read-out: KRAS WT FRET data IC50
In short: as §3

[10] = target: KRAS G12V (Homo sapiens (Human), UniProt P01116+P62937, G12V); test: as above; type: biochemical; settings: read-out: KRAS G12V FRET IC50
In short: as §3

[11] = target: KRAS G12S (Homo sapiens (Human), UniProt P01116+P62937, G12S); test: as above; type: biochemical; settings: read-out: KRAS G12S FRET IC50
In short: as §3

[12] = target: KRAS Q61H (Homo sapiens (Human), UniProt P01116+P62937, Q61H); test: as above; type: biochemical
In short: as §3

[13] = target: KRAS G13D (Homo sapiens (Human), UniProt P01116+P62937, G13D); test: as above; type: biochemical; settings: read-out: KRAS G13D FRET data IC50
In short: as §3

[14] = system: K-Ras G12C (NCI-H358 cells); test: Potency assay: pERK in NCI-H358 cells; type: cell-based, human; settings: Homo sapiens; NCI-H358 cells, 4 hours; read-out: pERK EC50 (H358 KRAS G12C)
In short: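 Cells plated the day before were exposed for 4 h at 37° C, 5% CO2 to a 10-point, 3-fold DMSO dilution series (10 mM top stock), in duplicate. Phospho-ERK was read by AlphaLISA SureFire Ultra or by In-Cell Western with DRAQ5 DNA stain, and IC50 came from a 4-parameter sigmoidal fit.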

Sequence of KRAS WT (P01116 other isoform, or with tags, fused parts or gaps): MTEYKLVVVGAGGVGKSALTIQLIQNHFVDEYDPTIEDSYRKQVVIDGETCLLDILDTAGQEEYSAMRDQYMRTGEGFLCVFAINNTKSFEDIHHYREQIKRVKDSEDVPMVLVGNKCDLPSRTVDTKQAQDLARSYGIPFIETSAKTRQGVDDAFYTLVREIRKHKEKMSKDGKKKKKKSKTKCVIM
Sequence of KRAS WT (P62937 whole entry): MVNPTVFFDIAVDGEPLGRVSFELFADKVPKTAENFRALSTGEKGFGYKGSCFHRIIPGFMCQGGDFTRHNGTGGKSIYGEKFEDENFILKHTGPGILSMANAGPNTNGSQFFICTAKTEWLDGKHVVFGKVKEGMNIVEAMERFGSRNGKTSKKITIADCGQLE
Sequence of KRAS G12V (P01116 other isoform, or with tags, fused parts or gaps G12V): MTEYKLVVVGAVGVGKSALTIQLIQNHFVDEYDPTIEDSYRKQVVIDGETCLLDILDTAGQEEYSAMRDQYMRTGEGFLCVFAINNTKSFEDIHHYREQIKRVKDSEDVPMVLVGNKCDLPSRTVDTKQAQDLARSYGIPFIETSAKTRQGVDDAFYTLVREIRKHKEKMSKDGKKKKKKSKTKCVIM
Sequence of KRAS G12V (P62937 whole entry): as the sequence (P62937 whole entry) above
Sequence of NRAS Q61R (P01111 whole entry Q61R): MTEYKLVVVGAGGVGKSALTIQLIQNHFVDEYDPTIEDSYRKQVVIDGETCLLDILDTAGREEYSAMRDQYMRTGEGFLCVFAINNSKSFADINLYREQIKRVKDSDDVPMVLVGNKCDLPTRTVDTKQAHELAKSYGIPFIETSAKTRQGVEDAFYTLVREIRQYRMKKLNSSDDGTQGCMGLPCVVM
Sequence of NRAS Q61R (P62937 whole entry): as the sequence (P62937 whole entry) above
Sequence of KRAS G12S (P01116 other isoform, or with tags, fused parts or gaps G12S): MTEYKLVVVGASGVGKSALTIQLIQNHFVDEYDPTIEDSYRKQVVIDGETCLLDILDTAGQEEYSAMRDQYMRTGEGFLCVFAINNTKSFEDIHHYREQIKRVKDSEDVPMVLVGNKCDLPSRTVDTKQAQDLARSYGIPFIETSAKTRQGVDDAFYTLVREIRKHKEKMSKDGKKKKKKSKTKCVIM
Sequence of KRAS G12S (P62937 whole entry): as the sequence (P62937 whole entry) above
Sequence of KRAS G13C (P01116 other isoform, or with tags, fused parts or gaps G13C): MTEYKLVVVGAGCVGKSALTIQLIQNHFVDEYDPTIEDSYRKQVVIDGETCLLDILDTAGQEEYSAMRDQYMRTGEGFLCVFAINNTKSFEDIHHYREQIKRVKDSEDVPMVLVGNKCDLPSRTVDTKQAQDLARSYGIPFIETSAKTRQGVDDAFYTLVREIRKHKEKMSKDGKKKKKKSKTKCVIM
Sequence of KRAS G13C (P62937 whole entry): as the sequence (P62937 whole entry) above
Sequence of KRAS Q61H (P01116 other isoform, or with tags, fused parts or gaps Q61H): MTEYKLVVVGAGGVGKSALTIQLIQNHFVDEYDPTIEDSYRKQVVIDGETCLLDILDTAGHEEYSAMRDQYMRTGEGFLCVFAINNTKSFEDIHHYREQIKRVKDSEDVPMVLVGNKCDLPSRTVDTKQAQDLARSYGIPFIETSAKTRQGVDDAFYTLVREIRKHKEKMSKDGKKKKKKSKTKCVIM
Sequence of KRAS Q61H (P62937 whole entry): as the sequence (P62937 whole entry) above
Sequence of NRAS G12C (P01111 whole entry G12C): as the sequence (P01111 whole entry Q61R) above, with G12C, R61Q counted along it
Sequence of NRAS G12C (P62937 whole entry): as the sequence (P62937 whole entry) above
Sequence of KRAS G12D (P01116 other isoform, or with tags, fused parts or gaps G12D): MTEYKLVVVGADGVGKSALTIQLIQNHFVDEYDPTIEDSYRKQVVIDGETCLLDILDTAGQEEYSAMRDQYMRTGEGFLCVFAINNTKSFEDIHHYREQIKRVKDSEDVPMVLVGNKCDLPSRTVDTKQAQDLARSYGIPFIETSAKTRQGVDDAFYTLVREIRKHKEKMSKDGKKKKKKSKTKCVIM
Sequence of KRAS G12D (P62937 whole entry): as the sequence (P62937 whole entry) above
Sequence of KRAS G13D (P01116 other isoform, or with tags, fused parts or gaps G13D): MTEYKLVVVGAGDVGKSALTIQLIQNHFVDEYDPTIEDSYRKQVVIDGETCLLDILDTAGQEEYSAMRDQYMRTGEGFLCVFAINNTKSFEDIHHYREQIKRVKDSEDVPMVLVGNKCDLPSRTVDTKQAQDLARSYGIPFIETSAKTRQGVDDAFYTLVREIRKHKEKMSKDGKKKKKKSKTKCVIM
Sequence of KRAS G13D (P62937 whole entry): as the sequence (P62937 whole entry) above
Sequence of NRAS WT (P01111 whole entry): as the sequence (P01111 whole entry Q61R) above, with R61Q counted along it
Sequence of NRAS WT (P62937 whole entry): as the sequence (P62937 whole entry) above
Sequence of KRAS G12C (P01116-2 other isoform, or with tags, fused parts or gaps G12C): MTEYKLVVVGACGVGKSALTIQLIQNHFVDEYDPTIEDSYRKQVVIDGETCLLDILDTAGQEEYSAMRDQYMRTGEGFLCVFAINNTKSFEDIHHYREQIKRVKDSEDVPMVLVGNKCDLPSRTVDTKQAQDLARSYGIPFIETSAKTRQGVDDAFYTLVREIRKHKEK
Sequence of KRAS G12C (P62937 whole entry): as the sequence (P62937 whole entry) above

| IC50 [3] | IC50 [4] | IC50 [5] | IC50 [6] | IC50 [7] | IC50 [8] | IC50 [9] | IC50 [10] | IC50 [11] | IC50 [12] | IC50 [13] | IC50 ([1]; K-Ras G12C, 5-day treatment) | EC50 [14] | Compound | IC50 [1] | IC50 [2] | IC50 ([2]; K-Ras G12V, 5-day treatment) |
| --- | --- | --- | --- | --- | --- | --- | --- | --- | --- | --- | --- | --- | --- | --- | --- | --- |
| 100 to 1000 nM | 100 to 1000 nM | 100 to 1000 nM | 10 to 100 nM | 10 to 100 nM | 100 to 1000 nM | 100 to 1000 nM | 100 to 1000 nM | 100 to 1000 nM | 100 to 1000 nM | 100 to 1000 nM | 10 to 100 nM | – | CCn1c(-c2cccnc2[C@H](C)OC)c2c3cc(ccc31)-c1csc(n1)C[C@H](NC(=O)[C@H](C(C)C)N(C)C(=O)N1CC(CN(C)C)C1)C(=O)N1CCC[C@H](N1)C(=O)OCC(C)(C)C2 [Compound A576] | – | – | 10 to 100 nM |
| 100 to 1000 nM | 100 to 1000 nM | 100 to 1000 nM | 10 to 100 nM | 10 to 100 nM | 100 to 1000 nM | 100 to 1000 nM | 100 to 1000 nM | 100 to 1000 nM | 10 to 100 nM | 100 to 1000 nM | 100 to 1000 nM | < 5000 nM | CCn1c(-c2cccnc2[C@H](C)OC)c2c3cc(ccc31)-c1csc(n1)C[C@H](NC(=O)[C@H](C(C)C)N(C)C(=O)N1C[C@H](N)[C@@H](O)C1)C(=O)N1CCC[C@H](N1)C(=O)OCC(C)(C)C2 [Compound A581] | – | – | 1000 to 10000 nM |
| 100 to 1000 nM | 100 to 1000 nM | 100 to 1000 nM | 10 to 100 nM | 10 to 100 nM | 100 to 1000 nM | 100 to 1000 nM | 100 to 1000 nM | 100 to 1000 nM | 10 to 100 nM | 100 to 1000 nM | 10 to 100 nM | < 5000 nM | CCn1c(-c2cccnc2[C@H](C)OC)c2c3cc(ccc31)-c1csc(n1)C[C@H](NC(=O)[C@H](C(C)C)N(C)C(=O)N1CCO[C@H](c3ccccc3)C1)C(=O)N1CCC[C@H](N1)C(=O)OCC(C)(C)C2 [Compound A582] | – | – | 100 to 1000 nM |
| 100 to 1000 nM | 100 to 1000 nM | 10 to 100 nM | 10 to 100 nM | 10 to 100 nM | 100 to 1000 nM | 100 to 1000 nM | 100 to 1000 nM | 100 to 1000 nM | 10 to 100 nM | 100 to 1000 nM | 10 to 100 nM | – | CCn1c(-c2cccnc2[C@H](C)OC)c2c3cc(ccc31)-c1csc(n1)C[C@H](NC(=O)[C@H](C(C)C)N(C)C(=O)N1CCO[C@@H](CN(C)C)C1)C(=O)N1CCC[C@H](N1)C(=O)OCC(C)(C)C2 [Compound A591] | – | – | 10 to 100 nM |
| 100 to 1000 nM | 100 to 1000 nM | 10 to 100 nM | 10 to 100 nM | 10 to 100 nM | 100 to 1000 nM | 10 to 100 nM | 100 to 1000 nM | 100 to 1000 nM | 10 to 100 nM | 100 to 1000 nM | 100 to 1000 nM | < 5000 nM | CCn1c(-c2cccnc2[C@H](C)OC)c2c3cc(ccc31)-c1csc(n1)C[C@H](NC(=O)[C@H](C(C)C)N(C)C(=O)N1CCO[C@@H](c3ccccc3)C1)C(=O)N1CCC[C@H](N1)C(=O)OCC(C)(C)C2 [Compound A600] | – | – | 100 to 1000 nM |

| Compound | IC50 [3] | IC50 [4] | IC50 [5] | IC50 [6] | IC50 [7] | IC50 [8] | IC50 [9] | IC50 [10] | IC50 [11] | IC50 [12] | IC50 [13] | IC50 ([1]; K-Ras G12C, 5-day treatment) | EC50 [14] | IC50 [1] | IC50 [2] | IC50 ([2]; K-Ras G12V, 5-day treatment) |
| --- | --- | --- | --- | --- | --- | --- | --- | --- | --- | --- | --- | --- | --- | --- | --- | --- |
| CCn1c(-c2cccnc2[C@H](C)OC)c2c3cc(ccc31)-c1csc(n1)C[C@H](NC(=O)[C@H](C(C)C)N(C)C(=O)N1CCC[C@H](N(C)C)C1)C(=O)N1CCC[C@H](N1)C(=O)OCC(C)(C)C2 [Compound A569] | 100 to 1000 nM | 100 to 1000 nM | 10 to 100 nM | 10 to 100 nM | 10 to 100 nM | 100 to 1000 nM | 100 to 1000 nM | 100 to 1000 nM | 100 to 1000 nM | 10 to 100 nM | 100 to 1000 nM | – | – | 10 to 100 nM | 10 to 100 nM | – |
